Results on four compounds are retold here after ChEMBL document CHEMBL1125225, “Delineating the pharmacophoric elements of huperzine A: importance of the unsaturated three-carbon bridge to its AChE inhibitory activity” (J Med Chem, 1991).

Bounds are passed on as bounds.

The target in this assay is T1, Acetylcholinesterase (Rattus norvegicus, UniProt P37136).
T1 sequence (P37136 whole entry): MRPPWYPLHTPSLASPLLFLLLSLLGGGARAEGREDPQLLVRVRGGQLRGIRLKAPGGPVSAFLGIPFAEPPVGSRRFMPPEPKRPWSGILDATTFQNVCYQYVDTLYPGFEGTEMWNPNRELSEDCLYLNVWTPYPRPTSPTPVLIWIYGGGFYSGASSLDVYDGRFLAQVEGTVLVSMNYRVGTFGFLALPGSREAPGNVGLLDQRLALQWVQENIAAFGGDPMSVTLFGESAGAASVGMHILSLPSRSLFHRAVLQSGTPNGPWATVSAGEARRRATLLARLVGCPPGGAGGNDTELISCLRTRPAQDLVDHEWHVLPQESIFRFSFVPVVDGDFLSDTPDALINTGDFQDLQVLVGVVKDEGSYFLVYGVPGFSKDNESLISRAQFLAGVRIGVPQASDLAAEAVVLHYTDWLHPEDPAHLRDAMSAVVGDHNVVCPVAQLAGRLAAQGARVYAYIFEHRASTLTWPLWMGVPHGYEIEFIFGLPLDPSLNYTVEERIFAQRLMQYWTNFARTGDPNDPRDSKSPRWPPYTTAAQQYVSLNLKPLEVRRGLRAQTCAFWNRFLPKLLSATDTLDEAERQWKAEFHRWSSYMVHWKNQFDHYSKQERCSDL
In words: Compound was tested for its ability to inhibit the action of acetylcholinesterase isolated from rat brain cortex.
On to `C/C=C1\CCc2[nH]c(=O)ccc2[C@]1(C)N`, for which the IC50 turned out to be 338 µM.

Consider `C/C=C1\C2CCC[C@]1(N)c1ccc(O)nc1C2`, for which half-maximal inhibition (IC50) was put at 9.82 µM. Turning to `CN(C)Cc1ccc(=O)[nH]c1`, the IC50 was above 900 µM. On to `NCc1ccc(O)nc1`, for which the IC50 was above 900 µM.
